Measured values: patent publication US20240383971A1, “Anti-DFS70 Autoantibodies and methods of attenuating formation of nets” (McMaster University, priority 2023, published 2024)

Tested on: neutrophils isolated from healthy donors
Test: In vitro NETosis assay (SEM images, MATLAB quantification)
Type: cell-based, human
Conditions: healthy donor neutrophils pooled n=4, 6 hrs

Compound | induction of NETosis in healthy neutrophils
CNc1ccc2oc(C[C@H]3O[C@@]4(CC[C@H]3C)O[C@H]([C@H](C)C(=O)c3ccc[nH]3)[C@H](C)C[C@H]4C)nc2c1C(=O)O [A23187] | stimulated to NETosis
CCCCCCCCCCCCCC(=O)O[C@@H]1[C@@H](C)[C@@]2(O)[C@@H](C=C(CO)C[C@]3(O)C(=O)C(C)=C[C@@H]23)[C@@H]2C(C)(C)[C@]12OC(C)=O [PMA, Phorbol 12-myristate 13-acetate] | stimulated to NETosis
